Measurements reported in ChEMBL document CHEMBL1811831, “Minutissamides A-D, antiproliferative cyclic decapeptides from the cultured cyanobacterium Anabaena minutissima” (J Nat Prod, 2011).

System: HT-29
Assay: Antiproliferative activity against human HT-29 cells
Format: functional, cell-based

Structure (SMILES)	IC50 [µM]
C/C=C1/NC(=O)[C@H](CC(N)=O)NC(=O)/C(=C\C)NC(=O)[C@H](C(C)C)NC(=O)[C@H](O)[C@@H]([C@@H](C)CCCCCCCC)NC(=O)[C@@H]2CCCN2C(=O)[C@H](CC(N)=O)N(C)C(=O)[C@H]([C@@H](C)O)NC(=O)[C@@H](C)NC(=O)[C@H](CC(N)=O)NC1=O [MINUTISSAMIDE A]	2
C/C=C1/NC(=O)[C@H](CC(N)=O)NC(=O)/C(=C\C)NC(=O)[C@H](C(C)C)NC(=O)[C@H](O)[C@@H]([C@@H](C)CCCCCCCCCl)NC(=O)[C@@H]2CCCN2C(=O)[C@H](CC(N)=O)N(C)C(=O)[C@H]([C@@H](C)O)NC(=O)[C@@H](C)NC(=O)[C@H](CC(N)=O)NC1=O [MINUTISSAMIDE B]	20
